Measured values reported in patent US5861400A, “Pharmaceutical compounds” (Xenova Limited, priority 1994, dated 1999).
Where a name gives a salt, the structure may show the parent alone.

Key:
Assay type in all cases: cell-based, mouse
AR 1.0 cells [1] = test: Drug accumulation assay (tritiated daunorubicin, AR 1.0 cells); conditions: for Emax / MAX accumulation (% 100 μm VRP): 100% = accumulation with 100 μM Verapamil, compounds 100 nM to 100 μM; for Emax: read-out: MAX accumulation (% 100 μm VRP); for IC50: daunorubicin accumulation, 37° C., DNR 2 μM
Method: (§1) The EMT6 mouse mammary carcinoma cell line and the MDR resistant subline AR 1.0 were cultured in RPMI 1640 medium containing 10% foetal calf serum and 2mM glutamine at 37° C. in 5% CO2. Cells were passaged between 1 in 200 and 1 in 2000 in the case of the parental cell line and between 1 in 20 and 1 in 200 in the case of the MDR resistant subline, after trypsinisation (0.25% trypsin, 0.2 gl^-1, EDTA).
1. Drug accumulation assay
AR 1.0 cells were seeded into 96 well opaque culture plates (Canberra Packard). The assay medium contained a mixture of tritiated Daunorubicin (DNR), a cytotoxic agent, and unlabelled DNR (0.25μ Ci/ml; 2 μM). Compounds of formula A were serially diluted in assay medium over a range of concentrations from 100 nM to 100 μM. The cells were incubated at 37° C. for 1 hr before washing and counting of cell associated radioactivity. Each assay included a titration of the known resistance modifying agent Verapamil as positive control. Results were expressed as % maximum accumulation where 100% accumulation is that observed in the presence of 100 μM Verapamil.

AR 1.0 cells [2] = test: Proliferation/toxicity assay, compound alone and with cytotoxic agent (sulphorhodamine B)
AR 1.0 cells [3] = test: Potentiation of Doxorubicin toxicity (potentiation index, AR 1.0 cells); conditions: doxorubicin 0.5 nM-50 μM, four days; for Potentiation Index (at 5 μM): Conc Comp 5 μM; for Potentiation Index: Conc Comp 3 μM
Method: as §1
2. Potentiation of Doxorubicin toxicity
Compounds of formula A were examined for their ability to potentiate the toxicity of doxorubicin in AR 1.0 cells. In initial proliferation assays compounds were titrated against a fixed concentration of doxorubicin (0.5-1 μM) which alone is non-toxic to AR 1.0 cells. Incubations with doxorubicin were over a four day period before quantitation of proliferation using the calorimetric sulphorhodamine B assay (Skehan et al; J. Natl. Cancer Inst. 82 pp 1107-1112 (1990)).
Cells were cultured for four days with concentrations of doxorubicin over the range of 0.5 nM-50 μM in the presence of Verapramil at its maximum subtoxic level determined from previous experiments. Proliferation was quantified as described by Skehan et al, loc cit. The IC50 (concentration required to reduce proliferation to 50% of the untreated controls) for doxorubicin alone and with the Verapamil were derived and used to calculate the potentiation index (PI): […]

[4] = Mus musculus, compound alone, read-out: COMPOUND TOXICITY (IC50 μM)
[5] = cytotoxic agent (doxorubicin) 1.00 μg/ml, 5760 min, read-out: TOXICITY WITH CYTOTOXIC AGENT (IC 50 μM)
[6] = cytotoxic agent (doxorubicin) 0.50 μg/ml, 5760 min, read-out: TOXICITY WITH CYTOTOXIC AGENT (IC 50 μM)
[7] = compound alone, read-out: COMPOUND TOXICITY (IC50 μM)

COc1ccc(/C=c2/c(=O)[nH]/c(=C\c3ccoc3)c(=O)n2C)cc1 [Compound 1563, (3Z,6Z)-3-(3-Furyl)methylene-6-(4-methoxybenzylidene)-1-methyl-2,5-piperazinedione]
Emax (AR 1.0 cells [1]; Mus musculus, 1 hr): 32.9%

COc1ccc(/C=c2/c(=O)[nH]/c(=C\c3cccs3)c(=O)n2C)cc1 [Compound 1564, (3Z,6Z)-6-(4-Methoxybenzylidene)-1-methyl-3-(2-thienylmethylene)-2,5-piperazinedione]
Emax (AR 1.0 cells [1]; Mus musculus, 1 hr): 46.3%

COc1ccc(/C=c2/c(=O)[nH]/c(=C\c3cn(C(=O)OC(C)(C)C)c4ccccc34)c(=O)n2C)cc1 [Compound 1565, (3Z,6Z)-6-(4-Methoxybenzylidene)-1-methyl-3-(1-tert-butoxycarbonyl-3-indolyl)methylene-2,5-piperazinedione]
Emax (AR 1.0 cells [1]; Mus musculus, 1 hr): 37.3%

Cn1c(=O)/c(=C/c2ccccc2)[nH]c(=O)/c1=C/c1cccs1 [Compound 1569, (3Z,6Z)-3-Benzylidene-1-methyl-6-(2-thienylmethylene)-2,5-piperazinedione]
Emax (AR 1.0 cells [1]; Mus musculus, 1 hr): 46%

COc1ccc(/C=c2\[nH]c(=O)/c(=C/c3ccoc3)n(C)c2=O)cc1 [Compound 1596]
Emax (AR 1.0 cells [1]; Mus musculus, 1 hr): 47.7%

COc1ccc(/C=c2\[nH]c(=O)/c(=C/c3cccs3)n(C)c2=O)cc1 [Compound 1597, (3Z,6Z)-3-(4-Methoxybenzylidene)-1-methyl-6-(2-thienylmethylene)-2,5-piperazinedione]
Emax (AR 1.0 cells [1]; Mus musculus, 1 hr): 59.1%
IC50 (AR 1.0 cells [1]; Mus musculus, 1 h): 50 µM
IC50 (AR 1.0 cells [2]; [4]): 25 µM
IC50 (AR 1.0 cells [2]; [5]): 6 µM

Cn1c(=O)/c(=C/c2ccccc2)[nH]c(=O)/c1=C/c1ccsc1 [Compound 1641, (3Z,6Z)-3-Benzylidene-1-methyl-6-(3-thienylmethylene)-2,5-piperazinedione]
Emax (AR 1.0 cells [1]; Mus musculus, 1 hr): 50.5%

COc1ccc(/C=c2/c(=O)n(C)/c(=C\C=Cc3ccccc3)c(=O)n2C)cc1 [Compound 1777, (3Z,6Z)-3-Cinnamylidene-6-(4-methoxybenzylidene)-1,4-dimethyl-2,5-piperazinedione]
Emax (AR 1.0 cells [1]; Mus musculus, 1 hr): 50%
IC50 (AR 1.0 cells [1]; Mus musculus, 1 h): 80 µM

Cn1c(=O)/c(=C/c2cn(C(=O)OC(C)(C)C)c3ccccc23)n(C)c(=O)/c1=C/c1ccccc1 [Compound 1800, (3Z,6Z)-3-Benzylidene-1,4-dimethyl-6-(1-tert-butoxycarbonyl-3-indolyl)methylene-2,5-piperazinedione]
IC50 (AR 1.0 cells [1]; Mus musculus, 1 h): 7 µM
Potentiation Index (at 5 μM) (AR 1.0 cells [3]): 40
IC50 (AR 1.0 cells [2]; [4]): 10 µM
IC50 (AR 1.0 cells [2]; [5]): 0.8 µM

Cn1c(=O)/c(=C/c2cn(C(=O)OC(C)(C)C)c3ccccc23)n(C)c(=O)/c1=C/c1cccs1 [Compound 1834, (3Z,6Z)-1,4-Dimethyl-3-(1-tert-butoxycarbonyl-3-indolyl)methylene-6-(2-thenylidene)-2,5-piperazinedione]
IC50 (AR 1.0 cells [1]; Mus musculus, 1 h): 5 µM
Potentiation Index (AR 1.0 cells [3]): 30
IC50 (AR 1.0 cells [2]; [4]): 10 µM
IC50 (AR 1.0 cells [2]; [6]): 0.8 µM

O=c1[nH]/c(=C\c2ccncc2)c(=O)n(Cc2ccccc2)/c1=C\c1ccccc1 [Compound 1839, (3Z,6Z)-1-Benzyl-6-benzylidene-3-(4-pyridyl)methylene-2,5-piperazinedione]
IC50 (AR 1.0 cells [1]; Mus musculus, 1 h): 20 µM
Potentiation Index (AR 1.0 cells [3]): 15
IC50 (AR 1.0 cells [2]; [7]): 30 µM
IC50 (AR 1.0 cells [2]; [6]): 1.5 µM

O=c1[nH]/c(=C\c2ccncc2)c(=O)n(Cc2ccccc2)/c1=C\c1ccccc1 [Compound 1840, (3Z,6Z)-1-Benzyl-6-benzylidene-3-(4-pyridyl)methylene-2,5-hydrochloride]
IC50 (AR 1.0 cells [1]; 1 hr): 12 µM
IC50 (AR 1.0 cells [2]; [7]): 5 µM
IC50 (AR 1.0 cells [2]; [6]): 1 µM

Cn1c(=O)/c(=C/c2cn(C(=O)OC(C)(C)C)c3ccccc23)n(C)c(=O)/c1=C/c1c(Cl)cccc1Cl [Compound 1873, (3Z,6Z)-6-(2,6-dichlorobenzylidene)-3-(1-tertbutoxycarbonyl-3-indolyl)methylene-1,4-dimethyl-2,5-piperazinedione]
Emax (AR 1.0 cells [1]; Mus musculus, 1 hr): 56%
IC50 (AR 1.0 cells [1]; Mus musculus, 1 h): 5 µM
IC50 (AR 1.0 cells [2]; [4]): 8 µM

COc1ccc(/C=c2/c(=O)n(Cc3ccccc3)/c(=C\c3cn(C(=O)OC(C)(C)C)c4ccccc34)c(=O)n2C)cc1 [Compound 1874, (3Z,6Z)-4-benzyl-3-(1-tertbutoxycarbonyl-3-indolyl)methylene-6-(4-methoxybenzylidene)-1-methyl-2,5-piperazinedione]
IC50 (AR 1.0 cells [1]; Mus musculus, 1 h): 10 µM
Potentiation Index (at 5 μM) (AR 1.0 cells [3]): 20

Cn1c(=O)/c(=C/c2cn(C(=O)OC(C)(C)C)c3ccccc23)n(C)c(=O)/c1=C/c1ccoc1 [Compound 1875, (3Z,6Z)-6-(3-furylmethylene)-6-(1-tertbutoxycarbonyl-3-indolyl)methylene-1,4-dimethyl-2,5-piperazinedione]
IC50 (AR 1.0 cells [1]; Mus musculus, 1 h): 5 µM
IC50 (AR 1.0 cells [2]; [4]): 10 µM
IC50 (AR 1.0 cells [2]; [6]): 0.8 µM

Cn1c(=O)/c(=C/c2ccccc2[N+](=O)[O-])n(C)c(=O)/c1=C/c1cccs1 [Compound 1877, (3Z,6Z)-1,4-dimethyl-6-(2-nitrobenzylidene)-3-(2-thienylmethylene)-2,5-piperazinedione]
IC50 (AR 1.0 cells [1]; Mus musculus, 1 h): 20 µM

COc1ccc(/C=c2/c(=O)n(Cc3ccccc3)/c(=C\c3ccoc3)c(=O)n2C)cc1 [Compound 1880, (3Z,6Z)-4-Benzyl-3-(3-furylmethylene)-6-(4-methoxybenzylidene)-1-methyl-2,5-piperazinedione]
IC50 (AR 1.0 cells [1]; Mus musculus, 1 h): 7 µM
IC50 (AR 1.0 cells [2]; [4]): 10 µM

Cn1c(=O)/c(=C/c2cn(C(=O)OC(C)(C)C)c3ccccc23)nc(OCCCN2C(=O)c3ccccc3C2=O)/c1=C/c1ccccc1 [Compound 1895, (3Z,6Z)-6-Benzylidene-1-methyl-5-(3-phthalimidopropoxy)-3-(l-tert-butoxycarbonyl-3-indolyl)methylene-3,6-dihydro-2-pyrazinone]
Emax (AR 1.0 cells [1]; Mus musculus, 1 hr): 12%

Cn1c(=O)/c(=C/c2c[nH]c3ccccc23)n(C)c(=O)/c1=C/c1ccccc1 [Compound 1896, (3Z,6Z)-3-Benzylidene-6-(3-indoly)methylene-1,4-dimethyl-2,5-piperazinedione]
IC50 (AR 1.0 cells [1]; Mus musculus, 1 h): 12 µM
IC50 (AR 1.0 cells [2]; [4]): 30 µM
IC50 (AR 1.0 cells [2]; [6]): 4 µM

Cn1c(=O)/c(=C/c2ccccc2)n(CCCN2C(=O)CCC2=O)c(=O)/c1=C/c1ccccc1 [Compound 1932, (3Z,6Z)-3,6-Dibenzylidene-4-methyl-1-(3-succinimidopropyl)-2,5-piperazinedione]
IC50 (AR 1.0 cells [1]; Mus musculus, 1 h): 10 µM

Cn1c(=O)/c(=C/c2ccccc2)nc(OCCCN2C(=O)CCC2=O)/c1=C/c1ccccc1 [Compound 1934, (3Z,6Z)-3,6-Dibenzylidene-1-methyl-5-(3-succinmidopropoxy)-3,6-dihydro-2-pyrazinone]
IC50 (AR 1.0 cells [1]; Mus musculus, 1 h): 1 µM

Cn1c(=O)/c(=C/c2ccccc2)nc(OCCCN2C(=O)C(=O)c3ccccc32)/c1=C/c1ccccc1 [Compound 1935, (3Z,6Z)-3,6-Dibenzylidene-5-(2,3-dioxo-1-indolinyl)propoxy-1-methyl-3,6-dihydro-2-pyrazinone]
IC50 (AR 1.0 cells [1]; Mus musculus, 1 h): 6 µM

COc1cccc2c1C(=O)c1c(O)c3c(c(O)c1C2=O)C[C@@](O)(C(=O)CO)C[C@@H]3O[C@H]1C[C@H](N)[C@H](O)[C@H](C)O1 [doxorubicin, reference compound]
toxicity of doxorubicin alone to AR 1.0 cells (AR 1.0 cells [2]; 0.5-1 μM, alone): non-toxic

(3Z,6Z)-3-Benzylidene-6-(2-furyl)-1,4-dimethyl-2,5-piperazinedione [Compound 1799]
MAX accumulation (% 100 μm VRP) (AR 1.0 cells [1]; 1 hr): 40.0%

(3Z,6Z)-6-Benzylidene-1-methyl-3-(1-tert-butoxycarbonyl-3-(l-tert-butoxycarbonyl-3-indolyl)methylene-2,5-piperazinedione [Compound 1894]
MAX accumulation (% 100 μm VRP) (AR 1.0 cells [1]; 1 hr): 36.0%

(3Z,6Z)-6-Benzylidene-3-furylidene-1,4-dimethyl-2,5-piperazinedione [Compound 1836]
MAX accumulation (% 100 μm VRP) (AR 1.0 cells [1]; 1 hr): 14.0%
